Source: ChEMBL document CHEMBL3797190, “Development of 3,5-Dinitrobenzylsulfanyl-1,3,4-oxadiazoles and Thiadiazoles as Selective Antitubercular Agents Active Against Replicating and Nonreplicating Mycobacterium tuberculosis” (J Med Chem, 2016)
In brackets after ≈: the same amount, converted by molar mass.

Columns and labels:
Type in all cases: functional
Candida tropicalis = assay: Antifungal activity against Candida tropicalis 156 after 24 to 48 hrs by broth microdilution method
Klebsiella pneumoniae [1] = assay: Antibacterial activity against ESBL producing Klebsiella pneumoniae J 14368/08 after 24 to 48 hrs by broth microdilution method
Mycobacterium avium [2] = assay: Antimycobacterial activity against Mycobacterium avium CNCTC My 330/88 after 21 days by microdilution method; details: CNCTC My 330/88, 504 h
[3] = system: Mycobacterium tuberculosis; assay: Antimycobacterial activity against Mycobacterium tuberculosis CNCTC My 331/88 after 21 days by microdilution method; details: CNCTC My 331/88, 504 h
Mycobacterium kansasii [4] = assay: Antimycobacterial activity against Mycobacterium kansasii CNCTC My 6509/96 after 7 days by microdilution method; details: CNCTC My 6509/96, 168 h
Staphylococcus aureus [5] = assay: Antibacterial activity against methicillin-resistant Staphylococcus aureus H 5996/08 after 24 to 48 hrs by broth microdilution method
Trichosporon asahii = assay: Antifungal activity against Trichosporon asahii 1188 after 24 to 48 hrs by broth microdilution method
Mycobacterium kansasii [6] = assay: Antimycobacterial activity against Mycobacterium kansasii CNCTC My 235/80 after 21 days by microdilution method; details: CNCTC My 235/80, 504 h
Nakaseomyces glabratus = assay: Antifungal activity against Candida glabrata 20/I after 24 to 48 hrs by broth microdilution method
[7] = system: Trichophyton mentagrophytes; assay: Antifungal activity against Trichophyton mentagrophytes 445 after 72 to 120 hrs by broth microdilution method
Klebsiella pneumoniae [8] = assay: Antibacterial activity against Klebsiella pneumoniae D 11750/08 after 24 to 48 hrs by broth microdilution method
Mycobacterium kansasii [9] = assay: Antimycobacterial activity against Mycobacterium kansasii CNCTC My 235/80 after 7 days by microdilution method; details: CNCTC My 235/80, 168 h
Mycobacterium kansasii [10] = assay: Antimycobacterial activity against Mycobacterium kansasii CNCTC My 6509/96 after 14 days by microdilution method; details: CNCTC My 6509/96, 336 h
[11] = system: Mycobacterium tuberculosis; assay: Antimycobacterial activity against Mycobacterium tuberculosis CNCTC My 331/88 after 14 days by microdilution method; details: CNCTC My 331/88, 336 h
Enterococcus faecalis = assay: Antibacterial activity against Enterococcus faecalis J 14365/08 after 24 to 48 hrs by broth microdilution method
Mycobacterium kansasii [12] = assay: Antimycobacterial activity against Mycobacterium kansasii CNCTC My 235/80 after 14 days by microdilution method; details: CNCTC My 235/80, 336 h
Candida albicans = assay: Antifungal activity against Candida albicans ATCC 44859 after 24 to 48 hrs by broth microdilution method
[13] = system: Staphylococcus epidermidis; assay: Antibacterial activity against Staphylococcus epidermidis H 6966/08 after 24 to 48 hrs by broth microdilution method
Escherichia coli = assay: Antibacterial activity against Escherichia coli ATCC 8739 after 24 to 48 hrs by broth microdilution method
Pichia kudriavzevii = assay: Antifungal activity against Candida krusei E28 after 24 to 48 hrs by broth microdilution method
Staphylococcus aureus [14] = assay: Antibacterial activity against Staphylococcus aureus ATCC 6538 after 24 to 48 hrs by broth microdilution method
Aspergillus fumigatus = assay: Antifungal activity against Aspergillus fumigatus 231 after 24 to 48 hrs by broth microdilution method
Mycobacterium kansasii [15] = assay: Antimycobacterial activity against Mycobacterium kansasii CNCTC My 6509/96 after 21 days by microdilution method; details: CNCTC My 6509/96, 504 h
Mycobacterium avium [16] = assay: Antimycobacterial activity against Mycobacterium avium CNCTC My 330/88 after 14 days by microdilution method; details: CNCTC My 330/88, 336 h
Pseudomonas aeruginosa = assay: Antibacterial activity against Pseudomonas aeruginosa ATCC 9027 after 24 to 48 hrs by broth microdilution method
Lichtheimia corymbifera = assay: Antifungal activity against Absidia corymbifera 272 after 24 to 48 hrs by broth microdilution method

| Structure (SMILES) | MIC80 (Candida tropicalis) [µM] | MIC95 (Klebsiella pneumoniae [1]) [µM] | MIC99 (Mycobacterium avium [2]) [µM] | MIC99 [3] [µM] | MIC95 (Staphylococcus aureus [5]) [µM] | MIC80 (Trichosporon asahii) [µM] | MIC80 (Nakaseomyces glabratus) [µM] | MIC50 [7] [µM] | MIC95 (Klebsiella pneumoniae [8]) [µM] | MIC95 (Enterococcus faecalis) [µM] | MIC80 (Candida albicans) [µM] | MIC95 [13] [µM] | MIC95 (Escherichia coli) [µM] | MIC80 (Pichia kudriavzevii) [µM] | MIC95 (Staphylococcus aureus [14]) [µM] | MIC50 (Aspergillus fumigatus) [µM] | MIC99 (Mycobacterium kansasii [15]) [µM] | MIC99 (Mycobacterium avium [16]) [µM] | MIC95 (Pseudomonas aeruginosa) [µM] | MIC50 (Lichtheimia corymbifera) [µM] | also measured |
| --- | --- | --- | --- | --- | --- | --- | --- | --- | --- | --- | --- | --- | --- | --- | --- | --- | --- | --- | --- | --- | --- |
| CCCCCCCCCCCc1nnc(SCc2cc([N+](=O)[O-])cc([N+](=O)[O-])c2)o1 | > 125 | > 125 | 8 (≈ 3.49 µg/mL) | 0.25 (≈ 0.109 µg/mL) | > 125 | > 125 | > 125 | > 125 | > 125 | > 125 | > 125 | > 125 | > 125 | > 125 | > 125 | > 125 | 0.25 (≈ 0.109 µg/mL) | 4 (≈ 1.75 µg/mL) | > 125 | > 125 | MIC99 (Mycobacterium kansasii [4]): 0.25 µM (≈ 0.109 µg/mL); MIC99 (Mycobacterium kansasii [6]): 0.25 µM (≈ 0.109 µg/mL); MIC99 (Mycobacterium kansasii [9]): 0.125 µM (≈ 0.0546 µg/mL); MIC99 (Mycobacterium kansasii [10]): 0.25 µM (≈ 0.109 µg/mL); MIC99 [11]: 0.25 µM (≈ 0.109 µg/mL); MIC99 (Mycobacterium kansasii [12]): 0.25 µM (≈ 0.109 µg/mL) |
| O=[N+]([O-])c1cc(CSc2nnc(-c3ccc(Cl)cc3)o2)cc([N+](=O)[O-])c1 | > 125 | > 125 | > 125 | – | > 125 | > 125 | > 125 | > 125 | > 125 | > 125 | > 125 | > 125 | > 125 | > 125 | > 125 | > 125 | 0.5 (≈ 0.196 µg/mL) | > 125 | > 125 | > 125 | – |
| O=[N+]([O-])c1ccc(CSc2nnc(-c3ccc(Cl)cc3)o2)c([N+](=O)[O-])c1 | > 125 | > 125 | 16 (≈ 6.28 µg/mL) | 2 (≈ 0.786 µg/mL) | > 125 | > 125 | > 125 | > 125 | > 125 | > 125 | > 125 | > 125 | > 125 | > 125 | > 125 | > 125 | 8 (≈ 3.14 µg/mL) | 8 (≈ 3.14 µg/mL) | > 125 | > 125 | MIC99 (Mycobacterium kansasii [4]): 4 µM (≈ 1.57 µg/mL); MIC99 (Mycobacterium kansasii [6]): 4 µM (≈ 1.57 µg/mL); MIC99 (Mycobacterium kansasii [9]): 2 µM (≈ 0.786 µg/mL); MIC99 (Mycobacterium kansasii [10]): 8 µM (≈ 3.14 µg/mL); MIC99 [11]: 2 µM (≈ 0.786 µg/mL); MIC99 (Mycobacterium kansasii [12]): 4 µM (≈ 1.57 µg/mL) |
| O=[N+]([O-])c1ccc(CSc2nnc(-c3ccc(Cl)cc3)s2)c([N+](=O)[O-])c1 | > 125 | > 125 | 8 (≈ 3.27 µg/mL) | 4 (≈ 1.64 µg/mL) | > 125 | > 125 | > 125 | > 125 | > 125 | > 125 | > 125 | > 125 | > 125 | > 125 | > 125 | > 125 | 4 (≈ 1.64 µg/mL) | 4 (≈ 1.64 µg/mL) | > 125 | > 125 | MIC99 (Mycobacterium kansasii [4]): 1 µM (≈ 0.409 µg/mL); MIC99 (Mycobacterium kansasii [6]): 4 µM (≈ 1.64 µg/mL); MIC99 (Mycobacterium kansasii [9]): 1 µM (≈ 0.409 µg/mL); MIC99 (Mycobacterium kansasii [10]): 2 µM (≈ 0.818 µg/mL); MIC99 [11]: 2 µM (≈ 0.818 µg/mL); MIC99 (Mycobacterium kansasii [12]): 2 µM (≈ 0.818 µg/mL) |
